Experimental data: patent US11427595B2, “Compositions and methods for inhibiting viral infection” (Trustees of Boston University, priority 2018, dated 2022)

Columns and labels:
JFH-1 HCVcc-Luc = experiment: microbe, parasite or virus in culture; assay type: cell-based, Hepatitis C virus; details: for inhibition of HCV infection (in words): Huh7.5.1 cells, comparisons are to aglaroxin C (6); for EC50: Hepatitis C virus, Huh-7.5.1, read-out: EC50, inhibition of HCV infection
[1] = test system: cap-dependent Firefly luciferase (FLuc) translation; experiment: In vitro translation of bicistronic FF/HCV/Ren mRNA in Krebs-2 extracts, cap-dependent; assay type: biochemical; details: 1 μM, relative to DMSO
Source text: In this system, Firefly luciferase (FLuc) translation is cap-dependent whereas Renilla luciferase (RLuc) expression HCV-IRES dependent. […] Results are presented relative to values obtained in the presence of DMSO ad expressed as mean±error of two biological replicates.
In this system, translation of the Firefly luciferase (FLuc) translation is cap-dependent whereas Renilla luciferase (RLuc) translation is dependent upon the HCV internal ribosome entry site (IRES) FIG. 11A.
In vitro transcriptions and translations were performed as described previously. Plasmid encoding the bicistronic FF/HCV/Ren open reading frame was linearized with BamHI and m^7Gppp-capped mRNA was produced by in vitro transcription reactions using SP6 RNA polymerase. In vitro translation reactions were performed with S10 extracts prepared from Kreb-2 cells and programmed with 4 ng/uL of in vitro transcribed mRNA. Firefly (FF) and Renilla (Ren) luciferase activities were measured on a Berthold Lumat LB9507 Luminometer and values normalized against vehicle control, which was set at 1.

translation = details: previous studies; cited from earlier work
Huh7.5.1 cells [2] = experiment: Cytotoxicity, CellTiter-Glo Cell Viability Luminescent Assay; assay type: cell-based, human; details: Huh7.5.1 cells; for cytotoxicity (in words): comparisons are to aglaroxin C (6)
Experimental: (§1) To determine the […] of each compound, Huh7.5.1 cells were treated with compounds or DMSO at indicated doses for 3 h in 96-well plates. After removal of compounds, cells were further incubated for 72 h prior to the viability assay. The numbers of viable cells in culture were determined using the CellTiter-Glo Cell Viability Luminescent Assay kit according to the manufacturer's instruction (Promega). Percentages of toxicity were calculated using the formulas: 100-percentage of vial cells relative to that from the dimethyl sulfoxide (DMSO) treated group (100%) (n=3) (FIG. 20-FIG. 57).

[3] = as above; assay type: cell-based, human; details: human; Huh7.5.1 cells, 3 h treatment, viability after 72 h; concentration giving 50% cell death
Experimental: as §1

Huh7.5.1 cells [4] = experiment: MTS cell viability assay; assay type: cell-based, human; details: 3 h treatment, 72 h incubation
Source text: In this comparison, niclosamide was used as a positive control, which is known as HCV inhibitor (unclear mechanisms). Data from CellTiter-Glo assay was obtained from separate experiments conducted on a different date.
MTS (3-(4,5-dimethylthiazol-2-yl)-5-(3-carboxymethoxyphenyl)-2-(4-sulfophenyl)-2H-tetrazolium)) assay is a colorimetric assay used to determine the mitochondrial metabolic rate by quantifying the reduced formazan product of MTS in cells to reflect viable cells. To determine the CC50 of each compound, Huh7.5.1 cells were treated with compounds or DMSO at indicated doses for 3 h in 96-well plates. After removal of compounds, cells were further incubated for 72 h prior to conducting the viability assay. The MTS assay in this study is accordance with a protocol provided by manufacturer (Promega, Madison, Wis. USA). One-fifth volume of MTS reagent was added into the culture supernatant at indicated time points. Plates were incubated at 37° C. for 3 hours with 5% CO2 followed by measuring the absorbance at 490 nanometers (nm) with an ELISA reader (SpectraMax Plus 385, Molecular Devices, USA). Percentages of toxicity were calculated using the formulas: 100-percentage of vial cells relative to that from the dimethyl sulfoxide (DMSO) treated group (100%) (n=3) (FIG. 68-FIG. 71).

Row | SMILES | inhibition of HCV infection (in words) (JFH-1 HCVcc-Luc) | cytotoxicity (in words) (Huh7.5.1 cells [2]) | also measured
1 | COc1ccc([C@@]23Oc4cc(OC)cc(OC)c4[C@]2(O)c2nc(N4CCOCC4)[nH]c(=O)c2[C@H]3c2ccccc2)cc1 [12j, (5R,5aR,10bS)-10b-Hydroxy-8,10-dimethoxy-5a-(4-methoxyphenyl)-2-morpholino-5-phenyl-3,5,5a,10b-tetrahydro-4H-benzofuro[2′,3′:4,5]cyclopenta[1,2-d]pyrimidin-4-one] | moderate antiviral activity |  | 
2 | CONC(=O)[C@H]1[C@@H](O)[C@@]2(O)c3c(OC)cc(OC)cc3O[C@@]2(c2ccc(OC)cc2)[C@@H]1c1ccccc1 [CR-1-31-B, reference compound] |  |  | translation inhibition of firefly luciferase (cap-dependent) [1]: strong inhibition
3 | COc1ccc([C@@]23Oc4cc(OC)cc(OC)c4[C@]2(O)c2nc(Nc4ccccc4)n(-c4ccccc4)c(=O)c2[C@H]3c2ccccc2)cc1 [12af, (5R,5aR,10bS)-10b-Hydroxy-8,10-dimethoxy-5a-(4-methoxyphenyl)-3,5-diphenyl-2-(phenylamino)-3,5,5a,10b-tetrahydro-4H-benzofuro[2′,3′:4,5]cyclopenta[1,2-d]pyrimidin-4-one] | moderate antiviral activity |  | 
4 | COc1ccc([C@@]23Oc4cc(OC)cc(OC)c4[C@]2(O)c2nc(C4CC4)[nH]c(=O)c2[C@H]3c2ccccc2)cc1 [12h, (5R,5aR,10bS)-2-Cyclopropyl-10b-hydroxy-8,10-dimethoxy-5a-(4-methoxyphenyl)-5-phenyl-3,5,5a,10b-tetrahydro-4H-benzofuro[2′,3′:4,5]cyclopenta[1,2-d]pyrimidin-4-one] | increased inhibition |  | 
5 | COC(=O)[C@H]1[C@@H](O)[C@@]2(O)c3c(OC)cc(O[C@@H]4O[C@@H]([C@H](O)CO)CO[C@H]4OC)cc3O[C@@]2(c2ccc(OC)cc2)[C@@H]1c1ccccc1 [silvestrol] |  |  | translation inhibition (in words) (translation): excellent translation inhibitor
6 | COc1ccc([C@@]23Oc4cc(OC)cc(OC)c4[C@]2(O)c2nc(-c4ccccc4)nc(OC)c2[C@H]3c2ccccc2)cc1 [12aj, (5R,5aR,10bS)-4,8,10-Trimethoxy-5a-(4-methoxyphenyl)-2,5-diphenyl-5,5a-dihydro-10bH-benzofuro[2′,3′:4,5]cyclopenta[1,2-d]pyrimidin-10b-ol] | inactive | non-toxic | 
7 | COc1ccc([C@@]23Oc4cc(OC)cc(OC)c4[C@]2(O)c2nc(-c4ccccn4)[nH]c(=O)c2[C@H]3c2ccccc2)cc1 [12ab, (5R,5aR,10bS)-10b-Hydroxy-8,10-dimethoxy-5a-(4-methoxyphenyl)-5-phenyl-2-(pyridin-2-yl)-3,5,5a,10b-tetrahydro-4H-benzofuro[2′,3′:4,5]cyclopenta[1,2-d]pyrimidin-4-one] | slightly increased inhibition |  | 
8 | COc1ccc([C@@]23Oc4cc(OC)cc(OC)c4[C@]2(O)c2nc(-c4ccccc4)[nH]c(=O)c2[C@H]3c2ccccc2)cc1 [12a, (5R,5aR,10bS)-10b-Hydroxy-8,10-dimethoxy-5a-(4-methoxyphenyl)-2,5-diphenyl-3,5,5a,10b-tetrahydro-4H-benzofuro[2′,3′:4,5]cyclopenta[1,2-d]pyrimidin-4-one] | promising increase of inhibition | plateauing of cytotoxicity | EC50 (JFH-1 HCVcc-Luc): 0.42 µM; CC50 [3]: 8.1 µM
9 | COc1ccc([C@@]23Oc4cc(OC)cc(OC)c4[C@]2(O)c2nc(-c4ccccc4)n(C)c(=O)c2[C@H]3c2ccccc2)cc1 [12ae, (5R,5aR,10bS)-10b-Hydroxy-8,10-dimethoxy-5a-(4-methoxyphenyl)-3-methyl-2,5-diphenyl-3,5,5a,10b-tetrahydro-4H-benzofuro[2′,3′:4,5]cyclopenta[1,2-d]pyrimidin-4-one] |  | plateauing of cytotoxicity | EC50 (JFH-1 HCVcc-Luc): 0.2 µM; CC50 [3]: 7.3 µM
10 | COc1ccc([C@@]23Oc4cc(OC)cc(OC)c4[C@]2(O)c2nc(C4CCCCC4)[nH]c(=O)c2[C@H]3c2ccccc2)cc1 [12e, (5R,5aR,10bS)-2-Cyclohexyl-10b-hydroxy-8,10-dimethoxy-5a-(4-methoxyphenyl)-5-phenyl-3,5,5a,10b-tetrahydro-4H-benzofuro[2′,3′:4,5]cyclopenta[1,2-d]pyrimidin-4-one] |  | plateauing of cytotoxicity | EC50 (JFH-1 HCVcc-Luc): 2.5 µM
11 | COc1ccc([C@@]23Oc4cc(OC)cc(OC)c4[C@]2(O)c2nc4n(c(=O)c2[C@H]3c2ccccc2)CCCC4)cc1 [12ad, (5aR,6R,13bS)-13b-Hydroxy-1,3-dimethoxy-5a-(4-methoxyphenyl)-6-phenyl-6,9,10,11,12,13b-hexahydrobenzofuro[2′,3′:4,5]cyclopenta[1,2-d]pyrido[1,2-a]pyrimidin-7(5aH)-one] | moderate antiviral activity |  | 
12 | COc1ccc(-c2nc3c(c(=O)[nH]2)[C@@H](c2ccccc2)[C@]2(c4ccc(OC)cc4)Oc4cc(OC)cc(OC)c4[C@]32O)cc1 (racemic) [12k, (5R,5aR,10bS)-10b-Hydroxy-8,10-dimethoxy-2,5a-bis(4-methoxyphenyl)-5-phenyl-3,5,5a,10b-tetrahydro-4H-benzofuro[2′,3′:4,5]cyclopenta[1,2-d]pyrimidin-4-one] |  |  | toxicity curve in MTS assay compared with CellTiter-Glo assay (Huh7.5.1 cells [4]): nearly identical toxicity curves
13 | COc1ccc([C@@]23Oc4cc(OC)cc(OC)c4[C@]2(O)c2nc(-c4ccccc4)[nH]c(=O)c2[C@@H]3c2ccccc2)cc1 [12ah, (5S,5aR,10bS)-10b-Hydroxy-8,10-dimethoxy-5a-(4-methoxyphenyl)-2,5-diphenyl-3,5,5a,10b-tetrahydro-4H-benzofuro[2′,3′:4,5]cyclopenta[1,2-d]pyrimidin-4-one] | inactive | no cytotoxicity | 
14 | COc1ccc([C@@]23Oc4cc(OC)cc(OC)c4[C@]2(OC)c2nc(-c4ccccc4)n(C)c(=O)c2[C@H]3c2ccccc2)cc1 [12ai, (5R,5aR,10bS)-8,10,10b-Trimethoxy-5a-(4-methoxyphenyl)-3-methyl-2,5-diphenyl-3,5,5a,10b-tetrahydro-4H-benzofuro[2′,3′:4,5]cyclopenta[1,2-d]pyrimidin-4-one] |  |  | EC50 (JFH-1 HCVcc-Luc): 9.2 µM
15 | COc1ccc([C@@]23Oc4cc(OC)cc(OC)c4[C@]2(O)c2nc(-c4ccc(C(F)(F)F)cc4)[nH]c(=O)c2[C@H]3c2ccccc2)cc1 (racemic) [12o, (5R,5aR,10bS)-10b-Hydroxy-8,10-dimethoxy-5a-(4-methoxyphenyl)-5-phenyl-2-(4-(trifluoromethyl)phenyl)-3,5,5a,10b-tetrahydro-4H-benzofuro[2′,3′:4,5]cyclopenta[1,2-d]pyrimidin-4-one] |  |  | EC50 (JFH-1 HCVcc-Luc): 0.24 µM; CC50 [3]: 10 µM; maximum cytotoxicity plateau, cell death (Huh7.5.1 cells [2]; dose-response up to 200 μM): ~100%; toxicity curve in MTS assay compared with CellTiter-Glo assay (Huh7.5.1 cells [4]): nearly identical toxicity curves
16 | COc1ccc([C@]23Oc4cc(OC)cc(OC)c4[C@@]2(O)c2nc(-c4ccc(C)cc4)[nH]c(=O)c2[C@@H]3c2ccccc2)cc1 [(−)-12l] | inactive | non-toxic | 
17 | COc1ccc([C@]23Oc4cc(OC)cc(OC)c4[C@@]2(O)c2nc(-c4cccc(OC)c4)[nH]c(=O)c2[C@@H]3c2ccccc2)cc1 [(−)-12s] | inactive | non-toxic | 
18 | COc1ccc([C@@]23Oc4cc(OC)cc(OC)c4[C@]2(O)c2nc(-c4cnccn4)[nH]c(=O)c2[C@H]3c2ccccc2)cc1 [12y, (5R,5aR,10bS)-10b-Hydroxy-8,10-dimethoxy-5a-(4-methoxyphenyl)-5-phenyl-2-(pyrazin-2-yl)-3,5,5a,10b-tetrahydro-4H-benzofuro[2′,3′:4,5]cyclopenta[1,2-d]pyrimidin-4-one] | slightly increased inhibition |  | 
